Source: patent US3980703A, “Extraction of carboxylic acids from dilute aqueous solutions” (The Dow Chemical Company, priority 1975, dated 1976)
Blank lines part the entries; values can stand above or below the compound they belong to.

Experiments:
Format in all cases: physicochemical
[1] = Extraction of acetic acid from 18% aqueous NaCl with polar extractants, distribution coefficient by radiometric counting (Example 1); conditions: 1920 ppm acetic acid in 18% aqueous NaCl, equal volumes, 30 min
Source text: (§1) A trace quantity of radioactive carbon-14 labeled acetic acid was included. Portions of this solution were shaken for thirty minutes with equal volumes of extractant solutions having the compositions set out in the following table. The phases were allowed to disengage, separated and their relative acetic acid concentrations determined by radiometric counting in a scintillation counter. The distribution coefficient (ratio of acetic acid concentrations in organic and aqueous phase) for each extraction is also given in the table.

[2] = Extraction of acetic acid with TOPO solutions, distribution coefficient (Example 2); conditions: about 0.025 molar acid
Source text: as §1, with “A solution of 1920 ppm (approximately 0.2 percent) of acetic acid in 18% aqueous NaCl was made up. A” for “A”
(§2) In the manner of Example 1, about 0.025 molar aqueous solutions of acetic, glycolic and lactic acids were extracted with equal volumes of TOPO (trioctyl phosphine oxide) solutions in kerosene or Chevron 3.

[3] = Extraction of glycolic acid with TOPO solutions, distribution coefficient (Example 2); conditions: for Distribution Coefficient For: Glycolic: about 0.025 molar acid
Source text: as §1, with “A solution of 1920 ppm (approximately 0.2 percent) of acetic acid in 18% aqueous NaCl was made up. A” for “A”
as §2

[4] = Extraction of lactic acid with TOPO solutions, distribution coefficient (Example 2); conditions: about 0.025 molar acid
Source text: as §1, with “A solution of 1920 ppm (approximately 0.2 percent) of acetic acid in 18% aqueous NaCl was made up. A” for “A”
as §2

[5] = Extraction of acrylic acid with tetra (n-butyl) urea, distribution coefficient by titration (Example 3); conditions: 28% extractant in cyclohexane; 1.9% acrylic acid in water; equal volumes
Source text: (§3) A 1.9% solution of acrylic acid in water was equilibrated with an equal volume of a 28% solution of tetra-(n-butyl) urea in cyclohexane. […] A similar experiment with 0.2% acetic acid in 18% sodium chloride as the aqueous phase, and 0.5 M tetrabutyl urea in Chevron 25 as the extractant, gave a distribution coefficient of 0.40.

[6] = Extraction of acetic acid with tetra (n-butyl) urea, distribution coefficient (Example 3); conditions: 0.5 M extractant in Chevron 25; 0.2% acetic acid in 18% sodium chloride
Source text: as §3

[7] = 0.2 M TOPO in kerosene, aqueous phase 1 Molar NaCl
[8] = 0.5 M TOPO in Chevron 3, aqueous phase 1 Molar NaCl
[9] = 0.5 M TOPO in Chevron 3, aqueous phase water

Distribution coefficient (ratio of acetic acid concentrations in organic and aqueous phase) ([1]; 0.1 M extractant in Chevron 25): 0.18 | Distribution coefficient (ratio of acetic acid concentrations in organic and aqueous phase) ([1]; 0.5 M extractant in Chevron 25): 1.00
Compound: CCCC[S+]([O-])CCCC [Di(n-butyl) sulfoxide]

Distribution coefficient (ratio of acetic acid concentrations in organic and aqueous phase) ([1]; 0.5 M extractant in Chevron 25): 6.1 | Distribution Coefficient For: Acetic [2, 7]: 1.46 | Distribution Coefficient For: Acetic [2, 8]: 3.2 | Distribution Coefficient For: Acetic [2, 9]: 2.8 | Distribution Coefficient For: Glycolic [3, 7]: 0.13 | Distribution Coefficient For: Glycolic [3, 8]: 0.39 | Distribution Coefficient For: Glycolic [3, 9]: 0.35 | Distribution Coefficient For: Lactic [4, 7]: 0.40 | Distribution Coefficient For: Lactic [4, 8]: 1.4 | Distribution Coefficient For: Lactic [4, 9]: 1.02
Compound: CCCCCCCCP(=O)(CCCCCCCC)CCCCCCCC [Trioctyl phosphine oxide, trioctyl phosphine oxide]

Compound: O=C(O)CO [glycolic acid]
extraction effectiveness of glycolic acid relative to acetic and lactic acids ([3]; TOPO solutions in kerosene or Chevron 3): much less effectively extracted than acetic and lactic acids

distribution coefficient for the acrylic acid (organic/aqueous) [5]: 1.05 | distribution coefficient (acetic acid) [6]: 0.40
Compound: CCCCN(CCCC)C(=O)N(CCCC)CCCC [tetra-(n-butyl) urea]
